From patent publication US8802597B2, “Herbicidal pyrimidines” (E I du Pont de Nemours and Company, priority 2003, dated 2014)
Like-named read-outs stand apart in the source and are kept apart here.

Tests used:
Assay in all cases: Test C pre/postemergence
Type in all cases: in vivo
[1] = tested on: bermudagrass (Cynodon dactylon); conditions: Cynodon dactylon; for pest or weed control at 16 g/ha: 16 g ai/ha; for pest or weed control at 31 g/ha: 31 g ai/ha; for pest or weed control at 62 g/ha: 62 g ai/ha; for pest or weed control at 125 g/ha: 125 g ai/ha
Method in brief: (§1)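 Applications: preemergence onto seeded soil and postemergence onto 1- to 4-leaf seedlings, compound carried in non-phytotoxic solvent plus surfactant. Kept in greenhouse 12 to 14 days. Scored visually relative to untreated controls, 0 (no effect) to 100 (complete control).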

[2] = tested on: cocklebur (Xanthium strumarium); conditions: Xanthium strumarium; for pest or weed control at 16 g/ha: 16 g ai/ha; for pest or weed control at 31 g/ha: 31 g ai/ha; for pest or weed control at 62 g/ha: 62 g ai/ha; for pest or weed control at 125 g/ha: 125 g ai/ha
Method in brief: as §1

[3] = tested on: common (oilseed) sunflower (Helianthus annuus); conditions: Helianthus annuus, pre-emergence, Preemergence, read-out: Plant response rating, Sunflower
Method in brief: as §1

[4] = tested on: common ragweed (Ambrosia elatior); conditions: Ambrosia artemisiifolia; for pest or weed control at 16 g/ha: 16 g ai/ha; for pest or weed control at 31 g/ha: 31 g ai/ha; for pest or weed control at 62 g/ha: 62 g ai/ha; for pest or weed control at 125 g/ha: 125 g ai/ha
Method in brief: as §1

[5] = tested on: eastern black nightshade (Solanum ptycanthum); conditions: Solanum, pre-emergence, Preemergence, read-out: Plant response rating, Nightshade
Method in brief: as §1

[6] = tested on: goosegrass (Eleusine indica); conditions: Eleusine indica; for pest or weed control at 16 g/ha: 16 g ai/ha; for pest or weed control at 31 g/ha: 31 g ai/ha; for pest or weed control at 62 g/ha: 62 g ai/ha; for pest or weed control at 125 g/ha: 125 g ai/ha
Method in brief: as §1

[7] = tested on: johnsongrass (Sorghum halepense); conditions: Sorghum halepense; for pest or weed control at 16 g/ha: 16 g ai/ha; for pest or weed control at 31 g/ha: 31 g ai/ha; for pest or weed control at 62 g/ha: 62 g ai/ha; for pest or weed control at 125 g/ha: 125 g ai/ha
Method in brief: as §1

[8] = tested on: kochia (Kochia scoparia); conditions: Bassia scoparia; for pest or weed control at 16 g/ha: 16 g ai/ha; for pest or weed control at 31 g/ha: 31 g ai/ha; for pest or weed control at 62 g/ha: 62 g ai/ha; for pest or weed control at 125 g/ha: 125 g ai/ha
Method in brief: as §1

[9] = tested on: lambsquarters (Chenopodium album); conditions: Chenopodium album; for pest or weed control at 16 g/ha: 16 g ai/ha; for pest or weed control at 31 g/ha: 31 g ai/ha; for pest or weed control at 62 g/ha: 62 g ai/ha; for pest or weed control at 125 g/ha: 125 g ai/ha
Method in brief: as §1

[10] = tested on: pigweed (Amaranthus retroflexus); conditions: Amaranthus retroflexus; for pest or weed control at 16 g/ha: 16 g ai/ha; for pest or weed control at 31 g/ha: 31 g ai/ha; for pest or weed control at 62 g/ha: 62 g ai/ha; for pest or weed control at 125 g/ha: 125 g ai/ha
Method in brief: as §1

[11] = tested on: soybean (Glycine max); conditions: Glycine max; for plant injury at 16 g/ha: 16 g ai/ha; for plant injury at 62 g/ha: 62 g ai/ha; for plant injury at 125 g/ha: 125 g ai/ha
Method in brief: as §1

[12] = tested on: velvetleaf (Abutilon theophrasti); conditions: Abutilon theophrasti; for pest or weed control at 16 g/ha: 16 g ai/ha; for pest or weed control at 31 g/ha: 31 g ai/ha; for pest or weed control at 62 g/ha: 62 g ai/ha; for pest or weed control at 125 g/ha: 125 g ai/ha
Method in brief: as §1

[13] = post-emergence, Postemergence, read-out: Plant response rating (scale of 0 to 100), Bermudagrass
[14] = post-emergence, Postemergence, scale 0 to 100 (0 no effect, 100 complete control), read-out: Bermudagrass plant response rating
[15] = pre-emergence, Preemergence, scale 0 to 100, 0 no effect, 100 complete control, read-out: Plant response rating, Bermudagrass
[16] = post-emergence, Postemergence, read-out: Plant response rating (scale of 0 to 100), Cocklebur
[17] = post-emergence, Postemergence, scale 0 to 100 (0 no effect, 100 complete control), read-out: Cocklebur plant response rating
[18] = pre-emergence, Preemergence, scale 0 to 100, 0 no effect, 100 complete control, read-out: Plant response rating, Cocklebur
[19] = 16 g ai/ha, scale 0 to 100, 0 no effect, 100 complete control
[20] = 31 g ai/ha, scale 0 to 100, 0 no effect, 100 complete control
[21] = 62 g ai/ha, scale 0 to 100, 0 no effect, 100 complete control
[22] = post-emergence, Postemergence, read-out: Plant response rating (scale of 0 to 100), Ragweed
[23] = post-emergence, Postemergence, scale 0 to 100 (0 no effect, 100 complete control), read-out: Ragweed plant response rating
[24] = pre-emergence, Preemergence, scale 0 to 100, 0 no effect, 100 complete control, read-out: Plant response rating, Ragweed
[25] = post-emergence, Postemergence, read-out: Plant response rating (scale of 0 to 100), Goosegrass
[26] = post-emergence, Postemergence, scale 0 to 100 (0 no effect, 100 complete control), read-out: Goosegrass plant response rating
[27] = pre-emergence, Preemergence, scale 0 to 100, 0 no effect, 100 complete control, read-out: Plant response rating, Goosegrass
[28] = post-emergence, Postemergence, read-out: Plant response rating (scale of 0 to 100), Johnsongrass
[29] = post-emergence, Postemergence, scale 0 to 100 (0 no effect, 100 complete control), read-out: Johnsongrass plant response rating
[30] = pre-emergence, Preemergence, scale 0 to 100, 0 no effect, 100 complete control, read-out: Plant response rating, Johnsongrass
[31] = post-emergence, Postemergence, read-out: Plant response rating (scale of 0 to 100), Kochia
[32] = post-emergence, Postemergence, scale 0 to 100 (0 no effect, 100 complete control), read-out: Kochia plant response rating
[33] = pre-emergence, Preemergence, scale 0 to 100, 0 no effect, 100 complete control, read-out: Plant response rating, Kochia
[34] = post-emergence, Postemergence, read-out: Plant response rating (scale of 0 to 100), Lambsquarters
[35] = post-emergence, Postemergence, scale 0 to 100 (0 no effect, 100 complete control), read-out: Lambsquarters plant response rating
[36] = pre-emergence, Preemergence, scale 0 to 100, 0 no effect, 100 complete control, read-out: Plant response rating, Lambsquarters
[37] = post-emergence, Postemergence, read-out: Plant response rating (scale of 0 to 100), Pigweed
[38] = post-emergence, Postemergence, scale 0 to 100 (0 no effect, 100 complete control), read-out: Pigweed plant response rating
[39] = pre-emergence, Preemergence, scale 0 to 100, 0 no effect, 100 complete control, read-out: Plant response rating, Pigweed
[40] = post-emergence, Postemergence, scale 0 to 100 (0 no effect, 100 complete control), read-out: Soybean plant response rating
[41] = pre-emergence, Preemergence, scale 0 to 100, 0 no effect, 100 complete control, read-out: Plant response rating, Soybean
[42] = post-emergence, Postemergence, read-out: Plant response rating (scale of 0 to 100), Velvetleaf
[43] = post-emergence, Postemergence, scale 0 to 100 (0 no effect, 100 complete control), read-out: Velvetleaf plant response rating
[44] = pre-emergence, Preemergence, scale 0 to 100, 0 no effect, 100 complete control, read-out: Plant response rating, Velvetleaf

Structure (SMILES): COC(=O)c1nc(C2CC2)nc(N)c1F [Compound 25]
- pest or weed control at 16 g/ha [1, 13]: 0%
- pest or weed control at 31 g/ha [1, 13]: 0%
- pest or weed control at 62 g/ha [1, 14]: 0%
- pest or weed control at 125 g/ha [1, 14]: 0%
- pest or weed control at 16 g/ha [1, 15]: 0%
- pest or weed control at 31 g/ha [1, 15]: 0%
- pest or weed control at 62 g/ha [1, 15]: 0%
- pest or weed control at 125 g/ha ([1]; pre-emergence, Preemergence, scale 0 to 100, read-out: Plant response rating, Bermudagrass): 10%
- pest or weed control at 16 g/ha [2, 16]: 70%
- pest or weed control at 31 g/ha [2, 16]: 85%
- pest or weed control at 62 g/ha [2, 17]: 90%
- pest or weed control at 125 g/ha [2, 17]: 90%
- pest or weed control at 16 g/ha [2, 18]: 0%
- pest or weed control at 31 g/ha [2, 18]: 20%
- pest or weed control at 62 g/ha [2, 18]: 60%
- pest or weed control at 125 g/ha ([2]; pre-emergence, Preemergence, scale 0 to 100, read-out: Plant response rating, Cocklebur): 85%
- pest or weed control at 16 g/ha [3, 19]: 5%
- pest or weed control at 31 g/ha [3, 20]: 60%
- pest or weed control at 62 g/ha [3, 21]: 75%
- pest or weed control at 125 g/ha ([3]; 125 g ai/ha, scale 0 to 100): 90%
- pest or weed control at 16 g/ha [4, 22]: 40%
- pest or weed control at 31 g/ha [4, 22]: 50%
- pest or weed control at 62 g/ha [4, 23]: 65%
- pest or weed control at 125 g/ha [4, 23]: 70%
- pest or weed control at 16 g/ha [4, 24]: 0%
- pest or weed control at 31 g/ha [4, 24]: 70%
- pest or weed control at 62 g/ha [4, 24]: 70%
- pest or weed control at 125 g/ha ([4]; pre-emergence, Preemergence, scale 0 to 100, read-out: Plant response rating, Ragweed): 85%
- pest or weed control at 16 g/ha [5, 19]: 0%
- pest or weed control at 31 g/ha [5, 20]: 0%
- pest or weed control at 62 g/ha [5, 21]: 30%
- pest or weed control at 125 g/ha ([5]; 125 g ai/ha, scale 0 to 100): 75%
- pest or weed control at 16 g/ha [6, 25]: 0%
- pest or weed control at 31 g/ha [6, 25]: 0%
- pest or weed control at 62 g/ha [6, 26]: 0%
- pest or weed control at 125 g/ha [6, 26]: 0%
- pest or weed control at 16 g/ha [6, 27]: 0%
- pest or weed control at 31 g/ha [6, 27]: 0%
- pest or weed control at 62 g/ha [6, 27]: 0%
- pest or weed control at 125 g/ha ([6]; pre-emergence, Preemergence, scale 0 to 100, read-out: Plant response rating, Goosegrass): 0%
- pest or weed control at 16 g/ha [7, 28]: 0%
- pest or weed control at 31 g/ha [7, 28]: 10%
- pest or weed control at 62 g/ha [7, 29]: 10%
- pest or weed control at 125 g/ha [7, 29]: 20%
- pest or weed control at 16 g/ha [7, 30]: 0%
- pest or weed control at 31 g/ha [7, 30]: 0%
- pest or weed control at 62 g/ha [7, 30]: 0%
- pest or weed control at 125 g/ha ([7]; pre-emergence, Preemergence, scale 0 to 100, read-out: Plant response rating, Johnsongrass): 0%
- pest or weed control at 16 g/ha [8, 31]: 10%
- pest or weed control at 31 g/ha [8, 31]: 80%
- pest or weed control at 62 g/ha [8, 32]: 85%
- pest or weed control at 125 g/ha [8, 32]: 85%
- pest or weed control at 16 g/ha [8, 33]: 0%
- pest or weed control at 31 g/ha [8, 33]: 0%
- pest or weed control at 62 g/ha [8, 33]: 5%
- pest or weed control at 125 g/ha ([8]; pre-emergence, Preemergence, scale 0 to 100, read-out: Plant response rating, Kochia): 70%
- pest or weed control at 16 g/ha [9, 34]: 30%
- pest or weed control at 31 g/ha [9, 34]: 60%
- pest or weed control at 62 g/ha [9, 35]: 85%
- pest or weed control at 125 g/ha [9, 35]: 90%
- pest or weed control at 16 g/ha [9, 36]: 0%
- pest or weed control at 31 g/ha [9, 36]: 0%
- pest or weed control at 62 g/ha [9, 36]: 30%
- pest or weed control at 125 g/ha ([9]; pre-emergence, Preemergence, scale 0 to 100, read-out: Plant response rating, Lambsquarters): 50%
- pest or weed control at 16 g/ha [10, 37]: 50%
- pest or weed control at 31 g/ha [10, 37]: 50%
- pest or weed control at 62 g/ha [10, 38]: 80%
- pest or weed control at 125 g/ha [10, 38]: 100%
- pest or weed control at 16 g/ha [10, 39]: 0%
- pest or weed control at 31 g/ha [10, 39]: 30%
- pest or weed control at 62 g/ha [10, 39]: 35%
- pest or weed control at 125 g/ha ([10]; pre-emergence, Preemergence, scale 0 to 100, read-out: Plant response rating, Pigweed): 85%
- plant injury at 16 g/ha ([11]; post-emergence, Postemergence, read-out: Plant response rating (scale of 0 to 100), Soybean): 40%
- plant injury at 31 g/ha ([11]; post-emergence, Postemergence, 31 g ai/ha, read-out: Plant response rating (scale of 0 to 100), Soybean): 90%
- plant injury at 62 g/ha [11, 40]: 90%
- plant injury at 125 g/ha [11, 40]: 90%
- plant injury at 16 g/ha [11, 41]: 30%
- plant injury at 62 g/ha [11, 41]: 60%
- plant injury at 125 g/ha ([11]; pre-emergence, Preemergence, scale 0 to 100, read-out: Plant response rating, Soybean): 65%
- pest or weed control at 16 g/ha [12, 42]: 5%
- pest or weed control at 31 g/ha [12, 42]: 20%
- pest or weed control at 62 g/ha [12, 43]: 45%
- pest or weed control at 125 g/ha [12, 43]: 45%
- pest or weed control at 16 g/ha [12, 44]: 0%
- pest or weed control at 31 g/ha [12, 44]: 0%
- pest or weed control at 62 g/ha [12, 44]: 0%
- pest or weed control at 125 g/ha ([12]; pre-emergence, Preemergence, scale 0 to 100, read-out: Plant response rating, Velvetleaf): 40%
